{"source": "patent EP4745118A1", "about": "“HYDROXAMIC ACID COMPOUND OR PHARMACEUTICALLY ACCEPTABLE SALT THEREOF, AND USE THEREOF AND PREPARATION METHOD THEREFOR” (priority 2023, dated 2025)", "key": {"Citrobacter freundii": {"system": "Citrobacter freundii", "assay": "In vitro antibacterial activity, agar dilution method (MIC)", "assay_type": "cell-based", "conditions": "Citrobacter freundii ATCC 43864; agar dilution, 35°C, 18 hours", "protocol": "(§1) According to the relevant operating procedures of the Clinical Laboratory Standards Institute (CLSI) in the United States, an antimicrobial susceptibility testing was conducted using the agar dilution method. […]. The agar was allowed to solidify and set aside for later use.\n(§2) The test bacteria were propagated in broth and adjusted to a turbidity of 0.5 McFarland (approximately 1-2 × 10^8 CFU/mL) using a turbidimeter before inoculation. The 0.5 McFarland bacterial solution was then diluted 10-fold in broth (approximately 1-2 × 10^7 CFU/mL). A multipoint inoculator was used to inoculate the above bacterial solution onto a series of plates containing different concentrations of drugs (with an inoculation amount of approximately 10^4 CFU per inoculation site). After incubation at a constant temperature of 35°C for 18 hours, results were observed. The minimum concentration of drugs contained in sterile growth plates was determined as the Minimal Inhibitory Concentration (MIC)."}, "Enterobacter aerogenes": {"system": "Enterobacter aerogenes", "assay": "In vitro antibacterial activity, agar dilution method (MIC)", "assay_type": "cell-based", "conditions": "Enterobacter aerogenes ATCC 13048; agar dilution, 35°C, 18 hours", "protocol": "as §1, §2"}, "Escherichia coli": {"system": "Escherichia coli", "assay": "In vitro antibacterial activity, agar dilution method (MIC)", "assay_type": "cell-based", "conditions": "agar dilution, 35°C, 18 hours", "protocol": "as §1, §2"}, "Klebsiella pneumoniae": {"system": "Klebsiella pneumoniae", "assay": "In vitro antibacterial activity, agar dilution method (MIC)", "assay_type": "cell-based", "conditions": "agar dilution, 35°C, 18 hours", "protocol": "as §1, §2"}, "Pantoea agglomerans": {"system": "Pantoea agglomerans", "assay": "In vitro antibacterial activity, agar dilution method (MIC)", "assay_type": "cell-based", "conditions": "Pantoea agglomerans ATCC 27993; agar dilution, 35°C, 18 hours", "protocol": "as §1, §2"}, "Proteus mirabilis": {"system": "Proteus mirabilis", "assay": "In vitro antibacterial activity, agar dilution method (MIC)", "assay_type": "cell-based", "conditions": "Proteus mirabilis ATCC 49565; agar dilution, 35°C, 18 hours", "protocol": "as §1, §2"}, "Proteus vulgaris": {"system": "Proteus vulgaris", "assay": "In vitro antibacterial activity, agar dilution method (MIC)", "assay_type": "cell-based", "conditions": "Proteus vulgaris ATCC 29905; agar dilution, 35°C, 18 hours", "protocol": "as §1, §2"}, "Pseudomonas aeruginosa": {"system": "Pseudomonas aeruginosa", "assay": "In vitro antibacterial activity, agar dilution method (MIC)", "assay_type": "cell-based", "conditions": "Pseudomonas aeruginosa PAO1; agar dilution, 35°C, 18 hours", "protocol": "as §1, §2"}, "Serratia marcescens": {"system": "Serratia marcescens", "assay": "In vitro antibacterial activity, agar dilution method (MIC)", "assay_type": "cell-based", "conditions": "Serratia marcescens ATCC 21074; agar dilution, 35°C, 18 hours", "protocol": "as §1, §2"}, "Enterobacter cloacae": {"system": "Enterobacter cloacae", "assay": "In vitro antibacterial activity, agar dilution method (MIC)", "assay_type": "cell-based", "conditions": "Enterobacter cloacae CDC1000654 (NDM-1-producing); agar dilution, 35°C, 18 hours", "protocol": "According to the relevant operating procedures of the Clinical Laboratory Standards Institute (CLSI) in the United States, an antimicrobial susceptibility testing was conducted using the agar dilution method. […] The agar was allowed to solidify and set aside for later use.\nas §2"}, "Shigella flexneri": {"system": "Shigella flexneri", "assay": "In vitro antibacterial activity, agar dilution method (MIC)", "assay_type": "cell-based", "conditions": "Shigella flexneri ATCC 12022, 35°C, 18 hours", "protocol": "According to the relevant operating procedures of the Clinical Laboratory Standards Institute (CLSI) in the United States, an antimicrobial susceptibility testing was conducted using the agar dilution method. A 1920 µg/mL stock solution was serially diluted twofold with sterile water to obtain dilutions of 960, 480, 240, 120, 60, 30, 15, 7.5, 3.75, 1.88, 0.94, 0.47 µg/mL, and 1 mL of the dilution was taken respectively from the dilutions with different concentrations and added to a Petri dish, to which 14 mL of melted MH agar medium was added and mixed thoroughly, and the final concentration of the drug in the petri dish is 128, 64, 32, 16, 8, 4, 2, 1, 0.5, 0.25, 0.12, 0.06, and 0.03 µ g/mL, respectively. The agar was allowed to solidify and set aside for later use.\nas §2"}, "[1]": {"system": "Escherichia coli ATCC BAA2469 (CRE, NDM-1-producing)", "assay": "In vivo antibacterial activity, intraperitoneal infection in mice (survival over 7 days)", "conditions": "for Animal survival rate / Number of surviving animals: mice, one intravenous administration 1 hour post-infection, 7 days; for Number of surviving animals: 5 animals per group", "protocol": "Mice were randomly grouped based on body weight, with 5 mice in each group, regardless of gender. The infectious bacteria was Escherichia coli ATCC BAA2469 (CRE, NDM-1-producing). The test bacterial solution was diluted with 5% high-activity dry yeast. Mice received intraperitoneal injection of 0.5 mL of 100% minimum lethal dose (100% MLD) bacterial solution. One intravenous administration was given at 1 hour post-infection at a dose volume of 10 mL/kg. Animal survival numbers were observed over 7 days, and survival rates were calculated."}}}
{"substance": "Colistin", "values": [{"measurement": "MIC", "setting": "Citrobacter freundii", "value": 0.5, "unit": "µg/mL"}, {"measurement": "MIC", "setting": "Enterobacter aerogenes", "value": 0.5, "unit": "µg/mL"}, {"measurement": "MIC", "setting": "Escherichia coli; Escherichia coli 13-43 (mcr-1)", "value": 16, "unit": "µg/mL"}, {"measurement": "MIC", "setting": "Escherichia coli; Escherichia coli 17-R28 (CRE, NDM-1-producing)", "value": 0.5, "unit": "µg/mL"}, {"measurement": "MIC", "setting": "Escherichia coli; Escherichia coli ATCC 2469 (CRE, NDM-1-producing)", "value": 0.5, "unit": "µg/mL"}, {"measurement": "MIC", "setting": "Escherichia coli; Escherichia coli ATCC 35218 (ESBLs-producing)", "value": 0.5, "unit": "µg/mL"}, {"measurement": "MIC", "setting": "Klebsiella pneumoniae; Klebsiella pneumoniae 09-20 (mcr-1)", "value": 16, "unit": "µg/mL"}, {"measurement": "MIC", "setting": "Klebsiella pneumoniae; Klebsiella pneumoniae 17-R27 (CRE)", "value": 16, "unit": "µg/mL"}, {"measurement": "MIC", "setting": "Klebsiella pneumoniae; Klebsiella pneumoniae 18-8 (ESBLs-producing)", "value": 0.5, "unit": "µg/mL"}, {"measurement": "MIC", "setting": "Klebsiella pneumoniae; Klebsiella pneumoniae ATCC 700603 (ESBLs-producing)", "value": 0.5, "unit": "µg/mL"}, {"measurement": "MIC", "setting": "Klebsiella pneumoniae; Klebsiella pneumoniae ATCC BAA-2146 (CRE, NDM-1-producing)", "value": 1, "unit": "µg/mL"}, {"measurement": "MIC", "setting": "Pantoea agglomerans", "value": 0.5, "unit": "µg/mL"}, {"measurement": "MIC", "setting": "Proteus mirabilis", "value": ">128", "unit": "µg/mL"}, {"measurement": "MIC", "setting": "Proteus vulgaris", "value": ">128", "unit": "µg/mL"}, {"measurement": "MIC", "setting": "Pseudomonas aeruginosa", "value": 2, "unit": "µg/mL"}, {"measurement": "MIC", "setting": "Serratia marcescens", "value": ">128", "unit": "µg/mL"}, {"measurement": "MIC", "setting": "Enterobacter cloacae", "value": 0.5, "unit": "µg/mL"}, {"measurement": "MIC", "setting": "Shigella flexneri", "value": 0.5, "unit": "µg/mL"}, {"measurement": "effective dose of in vivo antibacterial activity", "setting": "[1]; mice with intraperitoneal infection by Escherichia coli ATCC BAA2469, intravenous", "value": "below 1.5 mg/kg"}, {"measurement": "Animal survival rate", "setting": "[1]; dose 0.35 mg/kg", "value": 0, "unit": "%"}, {"measurement": "Number of surviving animals", "setting": "[1]; dose 0.35 mg/kg", "value": 0, "unit": "individuals"}, {"measurement": "Animal survival rate", "setting": "[1]; dose 0.7 mg/kg", "value": 20, "unit": "%"}, {"measurement": "Number of surviving animals", "setting": "[1]; dose 0.7 mg/kg", "value": 1, "unit": "individuals"}, {"measurement": "Animal survival rate", "setting": "[1]; dose 1.4 mg/kg", "value": 80, "unit": "%"}, {"measurement": "Number of surviving animals", "setting": "[1]; dose 1.4 mg/kg", "value": 4, "unit": "individuals"}]}
